Assay results taken from patent publication EP4578444A1, “APPLICATION OF BETA-CARYOPHYLLENE FOR TARGETED EPIGENETIC REGULATION AND POTENTIAL PREVENTION OF WATER-OSMOTIC CONDITIONS OF THE MUCOUS MEMBRANES AND EPITHELIA” (SkyLab AG, priority 2023, dated 2025).
≈ marks a conversion by molar mass, not a printed value.

Assays:
[1] = MTT cytotoxicity / cell viability of keratinocytes; assay type: cell-based; conditions: keratinocytes, throughout the selected concentration range (0.01-0.3 wt.%), threshold value of 70%, read-out: viability of skin and epithelial keratinocytes
Description: (§1) Beta-caryophyllene was studied for cytotoxicity and assessed for viability of skin and mucous membrane keratinocytes to determine the maximum permissible concentration for external and local application.
(§2) Cell viability was determined colorimetrically using MTT stain (Sigma Chemical, St. Louis, Mo.). The preparation was treated for the test in dimethylsulphoxide culture medium and added to a 96-well plate at serial dilutions ranging from 1.000 to 0.0032 mg/mL using a dilution factor of 3.16. Pre-culture was carried out for 48 hours before the test. Then MTT was added to the culture at a concentration of 0.75 mg/mL (100 µl/well) and incubated for another 4 hours. The contents of the well were removed, and 100 µl of isopropanol was added to solubilize the formed formazan crystals. Absorbance was determined in each well at 570 nm using a Multiskan GO monochromator (Thermo Scientific, Finland). Cell viability was expressed as a percentage and calculated by the equation: % Viable cells = (Absorbance of evaluated product incubated cells)/(Control absorbance) × 100 [formula]
(§3) Three biological replicates were made. Statistical data processing was carried out to calculate the mean, standard deviation, and trend for each biological replicate. For the statistical evaluation ANOVA test was used allowing the measurement of variation of the results, comparing the data between all the groups. […]

[2] = test system: skin and mucous membrane keratinocytes; test: MTT cytotoxicity / cell viability of keratinocytes; assay type: cell-based; conditions: 70% cell survival
Description: as §1, §2, §3

For `C=C1CC/C=C(\C)CC[C@@H]2[C@@H]1CC2(C)C` [Beta-caryophyllene], the viability [1] was > 70% and the EC70 [2] was 316.5 µg/mL (≈ 1550 µM).
